Source: patent US20250333406A1, “SULFONYL CYCLIC DERIVATIVES, AND COMPOSITIONS AND METHODS THEREOF” (Lysoway Therapeutics, Inc., priority 2023, published 2025)

Test system: TFEB
Assay: TFEB Nuclear Translocation Assay
Format: cell-based
Conditions: read-out: EC50 of TFEB activation

EC50	SMILES
≤ 1 µM	CC(C)S(=O)(=O)n1ccc(S(=O)(=O)n2nc(N3CCN(c4ncc(Cl)cn4)CC34CC4)c3c(Cl)cc(F)cc32)c1 [Compound 154, 4-chloro-3-(7-(5-chloropyrimidin-2-yl)-4,7-diazaspiro [2.5]octan-4-yl)-6-fluoro-1-((1-(isopropylsulfonyl)-1H-pyrrol-3-yl)sulfonyl)-1H-indazole]
≤ 1 µM	CC(C)S(=O)(=O)n1ccc(S(=O)(=O)n2nc(N3CCN(c4ncc(F)cn4)CC34CC4)c3c(Cl)cc(F)cc32)c1 [Compound 155, 4-chloro-6-fluoro-3-(7-(5-fluoropyrimidin-2-yl)-4,7-diazaspiro [2.5]octan-4-yl)-1-((1-(isopropylsulfonyl)-1H-pyrrol-3-yl)sulfonyl)-1H-indazole]
≤ 1 µM	CC(C)S(=O)(=O)n1ccc(S(=O)(=O)n2nc(N3CCN(c4ncc(Cl)s4)CC34CC4)c3c(Cl)cc(F)cc32)c1 [Compound 157, 5-chloro-2-(4-(4-chloro-6-fluoro-1-((1-(isopropylsulfonyl)-1H-pyrrol-3-yl)sulfonyl)-1H-indazol-3-yl)-4,7-diazaspiro [2.5]octan-7-yl) thiazole]
≤ 1 µM	CC(C)S(=O)(=O)n1ccc(S(=O)(=O)n2nc(N3CCN(c4ncc(F)cc4F)CC34CC4)c3c(Cl)cc(F)cc32)c1 [Compound 158, 4-chloro-3-[7-(3,5-difluoro-2-pyridyl)-4,7-diazaspiro [2.5]octan-4-yl]-6-fluoro-1-(1-isopropylsulfonylpyrrol-3-yl) sulfonyl-indazole]
≤ 1 µM	CC(C)S(=O)(=O)n1ccc(S(=O)(=O)n2nc(N3CCN(c4ncc(F)cc4F)CC34CC4)c3c(F)cc(F)cc32)c1 [Compound 159, 3-(7-(3,5-difluoropyridin-2-yl)-4,7-diazaspiro [2.5]octan-4-yl)-4,6-difluoro-1-((1-(isopropylsulfonyl)-1H-pyrrol-3-yl)sulfonyl)-1H-indazole]
≤ 1 µM	Cc1cc(S(=O)(=O)n2nc(N3CCN(c4ncc(F)cc4F)CC34CC4)c3c(Cl)cc(F)cc32)c(C)n1S(=O)(=O)C(C)C [Compound 160, 4-chloro-3-[7-(3,5-difluoro-2-pyridyl)-4,7-diazaspiro [2.5]octan-4-yl]-6-fluoro-1-(1-isopropylsulfonyl-2,5-dimethyl-pyrrol-3-yl) sulfonyl-indazole]
≤ 1 µM	CC(C)S(=O)(=O)n1ccc(S(=O)(=O)n2nc(N3CCN(c4ccc(F)cn4)CC34CC4)c3c(Cl)cc(F)cc32)c1 [Compound 161, 4-chloro-6-fluoro-3-[7-(5-fluoro-2-pyridyl)-4,7-diazaspiro [2.5]octan-4-yl]-1-(1-isopropylsulfonylpyrrol-3-yl) sulfonyl-indazole]
≤ 1 µM	CC(C)S(=O)(=O)n1ccc(S(=O)(=O)n2nc(N3CCN(c4ncccc4F)CC34CC4)c3c(Cl)cc(F)cc32)c1 [Compound 162, 4-chloro-6-fluoro-3-[7-(3-fluoro-2-pyridyl)-4,7-diazaspiro [2.5]octan-4-yl]-1-(1-isopropylsulfonylpyrrol-3-yl) sulfonyl-indazole]
≤ 1 µM	CC(C)S(=O)(=O)n1ccc(S(=O)(=O)n2nc(N3CCN(c4ccc(F)cn4)CC34CC4)c3c(F)cc(F)cc32)c1 [Compound 165, 4,6-difluoro-3-(7-(5-fluoropyridin-2-yl)-4,7-diazaspiro [2.5]octan-4-yl)-1-((1-(isopropylsulfonyl)-1H-pyrrol-3-yl)sulfonyl)-1H-indazole]
≤ 1 µM	CC(C)S(=O)(=O)n1ccc(S(=O)(=O)n2nc(N3CCN(c4ncc(F)cn4)CC34CC4)c3c(F)cc(F)cc32)c1 [Compound 166, 4,6-difluoro-3-(7-(5-fluoropyrimidin-2-yl)-4,7-diazaspiro [2.5]octan-4-yl)-1-((1-(isopropylsulfonyl)-1H-pyrrol-3-yl)sulfonyl)-1H-indazole]
≤ 1 µM	CC(C)S(=O)(=O)n1ccc(S(=O)(=O)n2nc(N3CCN(c4ncc(F)cc4F)CC34CC4)c3c(F)cc(Cl)cc32)c1 [Compound 168, 6-chloro-3-[7-(3,5-difluoro-2-pyridyl)-4,7-diazaspiro [2.5]octan-4-yl]-4-fluoro-1-(1-isopropylsulfonylpyrrol-3-yl) sulfonyl-indazole]

The remaining lines, values behind:

SMILES	EC50
CC(C)S(=O)(=O)n1ccc(S(=O)(=O)n2nc(N3CCN(c4ncc(Cl)cc4F)CC34CC4)c3c(Cl)ccnc32)c1 [Compound 152, 4-chloro-3-[7-(5-chloro-3-fluoro-2-pyridyl)-4,7-diazaspiro [2.5]octan-4-yl]-1-(1-isopropylsulfonylpyrrol-3-yl) sulfonyl-pyrazolo [3,4-b]pyridine]	≤ 1 µM
CC(C)S(=O)(=O)n1ccc(S(=O)(=O)n2nc(N3CCN(c4ncc(Cl)cc4F)CC34CC4)c3c(Cl)nccc32)c1 [Compound 153, 4-chloro-3-(7-(5-chloro-3-fluoropyridin-2-yl)-4,7-diazaspiro[2.5]octan-4-yl)-1-((1-(isopropylsulfonyl)-1H-pyrrol-3-yl)sulfonyl)-1H-pyrazolo[4,3-c]pyridine]	≤ 1 µM
CC(C)S(=O)(=O)n1ccc(S(=O)(=O)n2nc(N3CCN(c4nc(Cl)ns4)CC34CC4)c3c(Cl)cc(F)cc32)c1 [Compound 156, 3-chloro-5-[4-[4-chloro-6-fluoro-1-(1-isopropylsulfonylpyrrol-3-yl)sulfonyl-indazol-3-yl]-4,7-diazaspiro [2.5]octan-7-yl]-1,2,4-thiadiazole]	≤ 1 µM
CC(C)S(=O)(=O)n1ccc(S(=O)(=O)n2nc(N3CCN(c4ccccn4)CC34CC4)c3c(Cl)cc(F)cc32)c1 [Compound 163, 4-chloro-6-fluoro-1-(1-isopropylsulfonylpyrrol-3-yl)sulfonyl-3-[7-(2-pyridyl)-4,7-diazaspiro[2.5]octan-4-yl]indazole]	≤ 1 µM
CC(C)S(=O)(=O)n1ccc(S(=O)(=O)n2nc(N3CCN(c4ncccn4)CC34CC4)c3c(Cl)cc(F)cc32)c1 [Compound 164, 4-chloro-6-fluoro-1-(1-isopropylsulfonylpyrrol-3-yl)sulfonyl-3-(7-pyrimidin-2-yl-4,7-diazaspiro[2.5]octan-4-yl) indazole]	≤ 1 µM
CC(C)S(=O)(=O)n1ccc(S(=O)(=O)n2nc(N3CCN(c4ncc(F)cn4)CC34CC4)c3c(F)cc(Cl)cc32)c1 [Compound 167, 6-chloro-4-fluoro-3-(7-(5-fluoropyrimidin-2-yl)-4,7-diazaspiro [2.5]octan-4-yl)-1-((1-(isopropylsulfonyl)-1H-pyrrol-3-yl)sulfonyl)-1H-indazole]	≤ 1 µM
CN(C)S(=O)(=O)n1ccc(S(=O)(=O)n2nc(N3CCN(c4ncc(F)cn4)CC34CC4)c3c(F)cc(F)cc32)c1 [Compound 169, 3-[4,6-difluoro-3-[7-(5-fluoropyrimidin-2-yl)-4,7-diazaspiro [2.5]octan-4-yl]indazol-1-yl]sulfonyl-N, N-dimethyl-pyrrole-1-sulfonamide]	≤ 1 µM
CN(C)S(=O)(=O)n1ccc(S(=O)(=O)n2nc(N3CCN(c4ncc(F)cn4)CC34CC4)c3c(Cl)cc(F)cc32)c1 [Compound 170, 3-[4-chloro-6-fluoro-3-[7-(5-fluoropyrimidin-2-yl)-4,7-diazaspiro [2.5]octan-4-yl]indazol-1-yl]sulfonyl-N, N-dimethyl-pyrrole-1-sulfonamide]	≤ 1 µM
